# Test results from ChEMBL document CHEMBL5614401 (Eur J Med Chem, 2024).
# Active and inactive are the calls of the source. No cut-off for these calls is given here.
# Experiments:
# [1] = target: T1, Solute carrier family 22 member 12 (Homo sapiens, UniProt Q96S37); assay: Inhibition of human URAT1 transfected in HEK293 cells by measuring 14C-uric acid uptake at 5 uM preincubated for 30 mins followed by 14--uric acid addition and measured after 15 mins by liquid scintillation counter analysis relative to control; assay type: cell-based; details: 0.25 h, time 45 min
# T1 sequence (Q96S37 whole entry): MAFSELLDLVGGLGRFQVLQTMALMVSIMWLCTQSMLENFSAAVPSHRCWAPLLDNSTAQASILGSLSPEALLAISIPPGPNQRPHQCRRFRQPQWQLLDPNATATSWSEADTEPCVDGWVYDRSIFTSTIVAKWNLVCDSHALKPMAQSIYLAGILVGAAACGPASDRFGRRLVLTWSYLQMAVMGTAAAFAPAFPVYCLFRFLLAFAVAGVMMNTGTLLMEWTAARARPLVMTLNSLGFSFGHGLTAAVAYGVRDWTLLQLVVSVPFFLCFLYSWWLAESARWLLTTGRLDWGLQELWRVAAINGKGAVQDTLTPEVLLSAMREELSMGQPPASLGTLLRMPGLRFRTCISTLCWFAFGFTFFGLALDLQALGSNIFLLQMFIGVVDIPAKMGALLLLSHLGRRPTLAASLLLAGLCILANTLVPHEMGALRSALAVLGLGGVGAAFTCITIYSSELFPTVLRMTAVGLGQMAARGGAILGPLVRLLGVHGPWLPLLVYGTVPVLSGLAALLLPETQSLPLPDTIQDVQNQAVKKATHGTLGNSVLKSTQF
# [2] = target: T1, Solute carrier family 22 member 12; assay: Inhibition of human URAT1 transfected in HEK293 cells by measuring 14C-uric acid uptake preincubated for 30 mins followed by 14--uric acid addition and measured after 15 mins by liquid scintillation counter analysis; assay type: cell-based
# [3] = target: T2, Solute carrier family 2, facilitated glucose transporter member 9 (Homo sapiens) (UniProt Q9NRM0); assay: Inhibition of GLUT9 (unknown origin) overexpressed in uric acid-induced HEK293 cells at 25 uM by patch clamp analysis relative to control; assay type: cell-based
# T2 sequence (whole entry): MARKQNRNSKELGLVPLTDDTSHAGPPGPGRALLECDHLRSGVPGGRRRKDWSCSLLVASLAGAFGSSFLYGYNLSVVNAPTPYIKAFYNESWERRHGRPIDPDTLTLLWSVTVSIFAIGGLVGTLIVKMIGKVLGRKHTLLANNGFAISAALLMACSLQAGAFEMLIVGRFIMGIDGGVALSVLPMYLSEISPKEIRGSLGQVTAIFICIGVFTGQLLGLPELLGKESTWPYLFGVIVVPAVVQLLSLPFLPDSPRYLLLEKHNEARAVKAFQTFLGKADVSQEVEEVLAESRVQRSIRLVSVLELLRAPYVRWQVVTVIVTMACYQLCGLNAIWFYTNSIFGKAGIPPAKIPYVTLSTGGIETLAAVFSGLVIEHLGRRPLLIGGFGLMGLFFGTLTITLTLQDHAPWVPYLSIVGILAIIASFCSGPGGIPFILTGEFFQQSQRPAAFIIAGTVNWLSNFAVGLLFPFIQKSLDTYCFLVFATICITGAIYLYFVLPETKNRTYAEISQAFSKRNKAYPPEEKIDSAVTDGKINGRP
# [4] = target: T3, Solute carrier family 2, facilitated glucose transporter member 9 (Homo sapiens, UniProt Q9NRM0); assay: Inhibition of GLUT9 (unknown origin) overexpressed in uric acid-induced HEK293 cells by patch clamp analysis; assay type: cell-based
# T3 sequence (Q9NRM0 whole entry): T2 sequence (whole entry)
# [5] = Tmax in male Sprague-Dawley rat at 10 mg/kg, po measured after 24 hrs by LC-MS/MS analysis; assay type: ADME, organism-based; details: in vivo
# [6] = Cmax in male Sprague-Dawley rat at 10 mg/kg, po measured after 24 hrs by LC-MS/MS analysis; assay type: ADME, organism-based; details: in vivo
# [7] = Half life in male Sprague-Dawley rat at 10 mg/kg, po measured after 24 hrs by LC-MS/MS analysis; assay type: ADME, organism-based; details: in vivo
# [8] = AUC (0 to infinity) in male Sprague-Dawley rat at 10 mg/kg, po measured after 24 hrs by LC-MS/MS analysis; assay type: ADME, organism-based; details: in vivo
# [9] = MRT (0 to infinity) in male Sprague-Dawley rat at 10 mg/kg, po measured after 24 hrs by LC-MS/MS analysis; assay type: ADME, organism-based; details: in vivo
# [10] = target: T1, Solute carrier family 22 member 12; assay: Inhibition of URAT1 (unknown origin)
# Mus musculus [11] = assay: (§1) Anti-hyperuricemic activity against potassium oxonate-induced male Kunming mouse model assessed as reduction in serum uric acid level at 10 mg/kg, po via gavage administered 1 hr post-potassium oxonate challenge and measured after 7 days on day 7 potassium oxonate injected after 12 hrs fasting and measured followed by 1.5 hrs of compound administration; assay type: functional; details: time 7 day
# Mus musculus [12] = assay: as §1, with “increase” for “reduction”, “urine” for “serum”, “administration (reference value: 481.6 microM)” for “administration”; assay type: functional; details: time 7 day
# HK-2 [13] = assay: Cytotoxicity against human HK-2 cells assessed as cell viability at <100 uM incubated for 24 hrs by MTT assay; assay type: toxicity, cell-based; details: hk-2, 24 h
# HK-2 [14] = assay: Cytotoxicity against human HK-2 cells assessed as cell viability at 100 uM incubated for 48 hrs by MTT assay; assay type: toxicity, cell-based; details: hk-2, 48 h
# [15] = (§2) Renal toxicity in potassium oxonate-induced male Kunming mouse model assessed as reduction in CR level in serum at 10 mg/kg,po via gavage administered 1 hr post-potassium oxonate challenge and measured after 7 days on day 7 potassium oxonate injected after 12 hrs fasting and measured followed by 1.5 hrs of compound administration by biochemical analyzer; assay type: organism-based; details: in vivo, 168 h, time 7 day
# [16] = as §2, with “BUN” for “CR”; assay type: organism-based; details: in vivo, 168 h, time 7 day
# [17] = as §2, with “effect on kidney damage” for “reduction in CR level in serum”, “administration” for “administration by biochemical analyzer”; assay type: organism-based; details: in vivo, 168 h, time 7 day
# Mus musculus [18] = assay: as §1, with “alleviation of renal tubule dilatation” for “reduction in serum uric acid level”, “administration by H and E staining based analysis” for “administration”; assay type: functional, organism-based; details: time 7.0 day
# Mus musculus [19] = assay: as §1, with “alleviation of casts formation” for “reduction”, “kidney” for “serum uric acid level”, “administration by H and E staining based analysis” for “administration”; assay type: functional, organism-based; details: time 7.0 day
# Mus musculus [20] = assay: as §1, with “alleviation of glomerular ischemia” for “reduction”, “kidney” for “serum uric acid level”, “administration by H and E staining based analysis” for “administration”; assay type: functional, organism-based; details: time 7.0 day
# Mus musculus [21] = assay: as §1, with “alleviation of shrinkage” for “reduction”, “kidney” for “serum uric acid level”, “administration by H and E staining based analysis” for “administration”; assay type: functional, organism-based; details: time 7.0 day
compound,measurement,setting,value
CC(C)=CCc1c(O)ccc2c1OC(c1cc3ccccc3s1)CC2=O (centres undefined),inhibition at 5 µM,[1],13.4%
CC(C)=CCc1c(O)ccc2c1OC(c1ccc(O)cc1)CC2=O (centres undefined),inhibition at 5 µM,[1],93.3%
same,IC50,[2],240 nM
same,inhibition,[3],95.5%
same,IC50,[4],1840 nM
same,Tmax,[5],1.12 h
same,Cmax,[6],1110 ng/mL
same,half-life,[7],361 min
same,AUC(0-inf),[8],7460 ng·h/mL
same,MRT inf,[9],9.16 h
same,IC50,[10],220 nM
O=C(c1cc(Cl)c(O)c(Cl)c1)N1CS(=O)(=O)c2ccccc21 [DOTINURAD],IC50,[10],40 nM
Cc1ccc2c(c1C/C=C/S(=O)(=O)c1ccccc1)OC(c1ccsc1)CC2=O (centres undefined),IC50,[2],4430 nM
O=C(O)/C=C/Cc1cccc2c1OC(c1ccc(Br)c3ccccc13)CC2=O (centres undefined),IC50,[2],730 nM
C/C(=C\Cc1c(O)ccc2c1OC(c1cccs1)CC2=O)C(=O)O (centres undefined),IC50,[2],360 nM
same,inhibition,[3],25.5%
same,Activity,Mus musculus [11],366.12 µM
same,Activity,Mus musculus [12],630.52 µM
same,Activity,HK-2 [13],Toxic
same,Activity,HK-2 [14],Non-Toxic
same,Activity,[15],Non-Toxic
same,Activity,[16],Non-Toxic
same,Activity,[17],Non-Toxic
same,Activity,Mus musculus [18],Active
same,Activity,Mus musculus [19],Active
same,Activity,Mus musculus [20],Active
same,Activity,Mus musculus [21],Active
same,Tmax,[5],1.63 h
same,Cmax,[6],1410 ng/mL
same,half-life,[7],271 min
same,AUC(0-inf),[8],5560 ng·h/mL
same,MRT inf,[9],8.48 h
C/C(=C\Cc1c(O)ccc2c1OC(c1ccsc1)CC2=O)C(=O)O (centres undefined),IC50,[2],650 nM
CC(C)=CCc1c(O)ccc2c1OC(c1ccc(F)cc1)CC2=O (centres undefined),inhibition at 5 µM,[1],4.4%
C/C(=C\Cc1cccc2c1OC(c1cc3ccccc3s1)CC2=O)C(=O)O (centres undefined),IC50,[2],1640 nM
O=C(O)/C=C/Cc1cccc2c1OC(c1cc3ccccc3s1)CC2=O (centres undefined),IC50,[2],1890 nM
O=C(O)/C=C/Cc1cccc2c1OC(c1ccc(O)cc1)CC2=O (centres undefined),IC50,[2],4240 nM
O=C(O)/C=C/Cc1c(O)ccc2c1OC(c1ccc(O)cc1)CC2=O (centres undefined),IC50,[2],3020 nM
O=C(O)/C=C/Cc1cccc2c1OC(c1cccs1)CC2=O (centres undefined),IC50,[2],2500 nM
C/C(=C\Cc1cccc2c1OC(c1csc3ccccc13)CC2=O)C(=O)O (centres undefined),IC50,[2],950 nM
C/C(=C\Cc1cccc2c1OC(c1cc(Br)cs1)CC2=O)C(=O)O (centres undefined),IC50,[2],980 nM
C/C(=C\Cc1c(O)ccc2c1OC(c1ccc(O)cc1)CC2=O)C(=O)O (centres undefined),IC50,[2],2110 nM
C/C(=C\Cc1c(O)ccc2c1OC(c1csc3ccccc13)CC2=O)C(=O)O (centres undefined),IC50,[2],230 nM
same,inhibition,[3],8.33%
same,Activity,Mus musculus [11],392.02 µM
same,Activity,Mus musculus [12],599.6 µM
same,Activity,HK-2 [13],Toxic
same,Activity,HK-2 [14],Non-Toxic
same,Activity,[15],Non-Toxic
same,Activity,[16],Non-Toxic
same,Activity,[17],Non-Toxic
same,Activity,Mus musculus [18],Active
same,Activity,Mus musculus [19],Active
same,Activity,Mus musculus [20],Active
same,Activity,Mus musculus [21],Active
O=C(O)CSc1nnc(Br)n1-c1ccc(C2CC2)c2ccccc12,Activity,Mus musculus [11],380.14 µM
same,Activity,Mus musculus [12],696.8 µM
same,Activity,[15],Non-Toxic
same,Activity,[16],Non-Toxic
same,Activity,[17],Non-Toxic
same,Activity,Mus musculus [18],inactive
same,Activity,Mus musculus [19],inactive
same,Activity,Mus musculus [20],inactive
same,Activity,Mus musculus [21],inactive
